The record followed here is PMC2882366 (PLoS ONE, 2010).

This assay relates to p-S6RP in human breast cancer cell lines (MCF7 and MDA231). Briefly: Immunoblot of p-S6RP in human breast cancer cell lines. The class given is cell-based. To be noted: 100 nM, MCF7 and MDA231 cells. As for the experimental part: Protein concentration of lysates was determined by BCA protein assay (Pierce, Thermo Fischer Scientific, Rockford, IL). Lysates were separated with Invitrogen NuPage gels (Invitrogen, Carlsbad, CA) and transferred to nitrocellulose membranes. The blots were probed for the proteins of interest with specific antibodies followed by a secondary antibody (Cell Signaling Technology, Inc, Danvers, MA) and then incubated with SuperSignal chemiluminescence substrate (Pierce). The blots were then exposed to Kodak Biomax Light Film (Kodak, Rochester, NY). The antibodies against AKT and p-AKT (Ser473), S6RP and p-S6RP, and actin were obtained from Cell Signaling.
Controls were Jurkat cells treated with LY (−) or PMA (+). B. Quantitative determination of total and p-S6RP (S240/244) with electrochemiluminescence (ECL) assay. C. […] (1.56 MB TIF) Click here for additional data file.

As for `CO[C@H]1C[C@@H]2CC[C@@H](C)[C@@](O)(O2)C(=O)C(=O)N2CCCC[C@H]2C(=O)O[C@H]([C@H](C)C[C@@H]2CC[C@@H](O)[C@H](OC)C2)CC(=O)[C@H](C)/C=C(\C)[C@@H](O)[C@@H](OC)C(=O)[C@H](C)C[C@H](C)/C=C/C=C/C=C/1C` [rapamycin, Rapamycin], the “rapamycin-mediated inhibition of p-S6RP (immunoblot)” value is listed as “inhibition of p-S6RP”.
